For one series, the system named is K562 cells. Briefly: anti-tumor in vitro experiment, K562 cell growth inhibition (trypan blue counting). The conditions noted are these: Homo sapiens, 48 hours at 37° C., trypan blue living-cell count, read-out: median inhibitory concentration IC50. It counts as cell-based. The procedure:
Implementation case 3: anti-tumor in vitro experiments
The cultivation condition for K562 cells (human chronic myeloid leukemia leap cell lines) is: the volume fraction of 10 percent of the calf serum RPMI1640, penicillin (100 IU/ml) and streptomycin (100 μg/ml), at 37° C., 5% CO2 incubation box for cultivation. Take the logarithm growth period cells used for the inhibition rate experiments, with the concentration of cells inoculated 2.5×10^5/ml. In the 96-pore cultivation board, K562 cells are vaccinated with the inoculation amount of about 5×10^4/pore, 200 μl each pore. The drug is dissolved in dimethyl sulfoxide (DMSO), making the storage fluid of 10 mg/ml. Four groups are set up in this experiment, adding different concentrations of drugs respectively, so that the final concentrations are respectively 0.1, 1, 10, 100 μg/ml. There is no drug added for the reference control group, and three parallel holes are set up for each group, cultivating at 37° C. for 48 hours. Taking 0.4 percent trypan blue liquid (take 4 g trypan blue and put it into 100 ml PBS, making four percent trypan blue raw fluid, filtrated and disinfected, stored in 4° C. refrigerator, ready to use. Concentration is of 0.4 percent) and the cell suspension fluid, 50 μl respectively, mixing, and then take appropriate mixed fluid to fill in cell counting board, counting the four big grid non-coloring living cells. […]

A short description of series [1]: Solubility (physical and chemical properties). In kind it is physicochemical.

Each structure is given as a SMILES string. ≈ marks a conversion by molar mass, not a printed value.

On to `C/C1=C/[C@H](C)C[C@H](C)[C@H](Cc2cnco2)OC(=O)/C(C)=C\[C@H](C)C[C@H](C)C(Cc2cnco2)OC1=O` (stereo partly shown) [FW-04-806], for which the IC50 in the series with K562 cells is 12.4 mg/L (≈ 24.8 µM). Moreover, the Solubility result in series [1] (in methyl alcohol, ethyl acetate and dimethylsulfoxide) was “soluble”; in series [1] (in n-hexane or petroleum ether), “nearly insoluble”; in series [1] (in water), “insoluble”.

These data come from patent US20100041896A1, “Macrolide compound with bis-oxazoly” (priority 2008, published 2010).
